In paper PMC3671111, “A Phase I, open-label, randomized, crossover study in three parallel groups to evaluate the effect of Rifampicin, Ketoconazole, and Omeprazole on the pharmacokinetics of THC/CBD oromucosal spray in healthy volunteers” (SpringerPlus, 2013):
Marks after values point to notes of the source that are not given here.

How the values were obtained:
[1] = Phase I drug-drug interaction PK, Group 3: THC/CBD spray alone or with omeprazole, plasma by GC-MS; settings: for AUC(0-inf) / AUC(0-t) / Cmax / Kel / t½ / Tmax: n = 12, plasma; for AUC(0-inf) / AUC(0-t) / Cmax / Kel / t½: mean (SD); for Tmax: median (range); for Cmax and AUC % Co-efficient of Variation (CV%) range: inter-subject variability
Method: (§1) Subjects received rifampicin on Days 1-9. […] Subjects received ketoconazole on Days 1-4.
(§2) Blood samples were collected at specified times and stored on ice (except rifampicin PK samples which were stored in iced water) prior to processing and storage. Plasma samples were separated by centrifugation (approximately 2500 rpm × 15 minutes at 4°C). Samples were stored in 4 mL amber glass screw top glass vials with PTFE lined screw caps labelled with Guys Drug Research (Quintiles Limited) labels. The aliquots were stored in clearly labelled containers in a freezer set at or below -20°C, until shipped for assay. Samples were shipped on dry ice at the appropriate time-points.
(§3) The assay validation was undertaken by Advanced Bioanalytical Service Laboratories (London, UK), who developed the technique after reviewing the literature, which was based on the methodology adopted by three different groups (Foltz et al. [1983]; Goodall & Basteyns [1995]; Kemp et al. [1995]), and designed with reference to FDA guidelines for industry (FDA Guidance for Industry [2012]). The method utilised protein precipitation, solvent extraction and derivatisation for the sample preparation and then sample analysis by capillary gas chromatography and detection by a mass spectrometer (GC-MS). The validation procedure investigated the calibration model with the best regression fit over the concentration range 0.1 - 100 ng/mL for CBD, THC and 11-OH-THC, as well as precision and accuracy of the method, stability, carry-over, and specificity.
(§4) Human plasma from healthy volunteers was used to prepare the standards and quality control (QC) samples, with analytes extracted using hexane/ethyl acetate (7:1 ratio), derivatised with N,O-Bis(trimethylsilyl)trifluoroacetamide. Analytic grade THC (Sigma, UK), CBD (Sigma, UK) and 11-OH-THC (Radian International and Cerillant, UK) were obtained, and three sets of CBD, THC and 11-OH-THC were used to support the study. Deuterated THC-d3 (Sigma, UK) was used as the internal standard. The GC-MS equipment was a Hewlett Packard 6890 Gas Chromatograph attached to a Hewlett Packard 5973 Mass Selective Detector. Data handling was carried out using an MS Chemstation System and the peak area ratio of the analytes to the internal standard was calculated in Excel (2000). The concentrations were calculated from the ratio data using least squares ln(y) on ln(x) regression performed in Excel (2000), and were then checked manually. Regression analysis was undertaken to find the regression model that best described the calibration data (for details, see ([Miller & Miller 1992])).
(§5) A 0.5 mL aliquot of test sample, QC or blank plasma was placed into a test tube. The blank plasma was spiked with 50 μL of the appropriate standard solution to produce the calibration standards. 50 μL of the internal standard was added to each test tube. The samples were then diluted by the addition of 500 μL of 0.1% (w/v) ascorbic acid and the protein precipitated by the addition of 1.0 mL of acetonitrile. The proteins were removed by centrifugation and the supernatant concentrated to 1 mL using nitrogen at 50 °C. The samples were then basified by the addition of 300 μL of 5M sodium hydroxide and the analytes extracted by the addition of 2.0 mL of 7:1 hexane:ethyl acetate. After mixing for 16 minutes the tubes were centrifuged and the top layer transferred into clean 3 dram vials. The solvent was removed using nitrogen at 70 °C and the dried extract resuspended in 100 μL of BSTFA and transferred to microvials, capped and placed at 70 °C for 30 minutes to derivatise the analytes. The microvials were then cooled and loaded onto the autosampler tray for analysis where 1 μL was injected onto the GC-MS system.

[2] = Phase I drug-drug interaction PK, Group 1: THC/CBD spray alone or with rifampicin, plasma by GC-MS; settings: for AUC(0-inf) / AUC(0-t) / Cmax / Kel / t½ / Tmax: n = 12, plasma; for AUC(0-inf) / AUC(0-t) / Cmax / Kel / t½: mean (SD); for Tmax: median (range)
Method: as §1, §2, §3, §4, §5

[3] = Phase I drug-drug interaction PK, Group 2: THC/CBD spray alone or with ketoconazole, plasma by GC-MS; settings: for AUC(0-inf) / AUC(0-t) / Cmax / Kel / t½ / Tmax: plasma; for AUC(0-inf) / AUC(0-t) / Cmax / Kel / t½: mean (SD); for Tmax: median (range)
Method: as §1, §2, §3, §4, §5

[4] = Omeprazole and THC/CBD spray vs THC/CBD spray alone, no-interaction range 0.80 to 1.25
[5] = THC/CBD spray 4 sprays and omeprazole 40 mg at end of 6-day dosing period
[6] = THC/CBD spray alone, single dose 4 sprays (10.8/10 mg), omeprazole group
[7] = THC/CBD spray co-administered with omeprazole vs alone
[8] = Rifampicin and THC/CBD spray vs THC/CBD spray alone, no-interaction range 0.80 to 1.25
[9] = THC/CBD spray 4 sprays and rifampicin 600 mg after repeated daily dosing
[10] = THC/CBD spray alone, single dose 4 sprays (10.8/10 mg), rifampicin group
[11] = THC/CBD spray co-administered with rifampicin vs alone
[12] = Ketoconazole and THC/CBD spray vs THC/CBD spray alone, no-interaction range 0.80 to 1.25
[13] = THC/CBD spray 4 sprays and ketoconazole 400 mg at end of 5-day dosing period, n = 11
[14] = THC/CBD spray alone, single dose 4 sprays (10.8/10 mg), ketoconazole group, n = 12
[15] = THC/CBD spray co-administered with ketoconazole vs alone

## 11-hydroxy-THC [11-OH-THC]
[1]; [4]
  Geometric mean ratio of AUC(0-inf), point estimate: 0.869
  Geometric mean ratio of AUC(0-t), point estimate: 0.869
  Geometric mean ratio of Cmax, point estimate: 0.866
[1]; [5]
  AUC(0-inf): 19.80 (9.74) h*ng/mL
  AUC(0-t): 17.69 (9.05) h*ng/mL
  Cmax: 2.84 (1.40) ng/mL
  Kel: 0.095 (0.029) h^-1
  t½: 7.98 (2.82) h
  Tmax: 1.52 (1.23-2.50) h
[1]; [6]
  AUC(0-inf): 24.17 (16.47) h*ng/mL
  AUC(0-t): 21.52 (14.76) h*ng/mL
  Cmax: 3.48 (2.27) ng/mL
  Kel: 0.114 (0.062) h^-1
  t½: 7.30 (2.87) h
  Tmax: 2.00 (1.25-3.02) h
[1]; THC/CBD spray at end of 6-day omeprazole dosing
  Plasma concentrations and PK parameters compared with THC/CBD spray alone: marginally lower
[1]; [7]
  % change in Tmax: -24%
  % change in t1/2: +9%
[1]; at the clinically relevant dose of THC/CBD spray investigated
  Substrate for the isoenzyme CYP2C19 (conclusion from omeprazole interaction): not substrates
[1]; THC/CBD spray alone, omeprazole group
  Cmax and AUC % Co-efficient of Variation (CV%) range: 48-69%
[1]; THC/CBD spray in combination with omeprazole
  Cmax and AUC % Co-efficient of Variation (CV%) range: 40-67%
[2]; [8]
  Geometric mean ratio of AUC(0-inf), point estimate: 0.131
  Geometric mean ratio of AUC(0-t), point estimate: 0.099
  Geometric mean ratio of Cmax, point estimate: 0.140
[2]; [9]
  AUC(0-inf): 2.78 (0.68)^c h*ng/mL
  AUC(0-t): 1.84 (0.79) h*ng/mL
  Cmax: 0.45 (0.18) ng/mL
  Kel: 0.189 (0.074)^c h^-1
  t½: 4.19 (1.62)^c h
  Tmax: 1.75 (1.50-2.57) h
[2]; [10]
  AUC(0-inf): 21.59 (8.76) h*ng/mL
  AUC(0-t): 18.61 (7.81) h*ng/mL
  Cmax: 3.38 (1.95) ng/mL
  Kel: 0.083 (0.042) h^-1
  t½: 9.88 (3.89) h
  Tmax: 1.38 (0.50-6.02) h
[2]; [11]
  % change in mean t1/2: -58%
  % change in median Tmax: +27%
[2]; THC/CBD spray with rifampicin vs THC/CBD spray alone
  Change in mean Cmax: -87%
[3]; [12]
  Geometric mean ratio of AUC(0-inf), point estimate: 3.616
  Geometric mean ratio of AUC(0-t), point estimate: 3.823
  Geometric mean ratio of Cmax, point estimate: 3.074
[3]; [13]
  AUC(0-inf): 95.26 (48.93) h*ng/mL
  AUC(0-t): 84.34 (40.18) h*ng/mL
  Cmax: 10.92 (3.83) ng/mL
  Kel: 0.095 (0.016) h^-1
  t½: 7.48 (1.39) h
  Tmax: 2.25 (1.50-4.13) h
[3]; [14]
  AUC(0-inf): 27.13 (13.34)^d h*ng/mL
  AUC(0-t): 21.78 (11.34) h*ng/mL
  Cmax: 3.59 (1.67) ng/mL
  Kel: 0.076 (0.014)^d h^-1
  t½: 9.51 (2.18)^d h
  Tmax: 1.50 (1.00-6.00) h
[3]; [15]
  % change in mean Tmax: +50%
  % change in t1/2: -21%
[3]; THC/CBD spray with ketoconazole vs THC/CBD spray alone
  Change in mean Cmax: +204%
[3]; suggested by increased exposure with ketoconazole
  Substrate for the isoenzyme CYP3A4 (conclusion from ketoconazole interaction): substrates
[3]; vs THC/CBD spray alone
  AUC, times higher after CYP3A4 inhibition by ketoconazole: 3.8 times
  Cmax, times higher after CYP3A4 inhibition by ketoconazole: 3.1 times
